The term IC50 denotes the concentration that inhibits the measured activity by half.

The source of these data is patent US9302991B2, “Arylamide derivatives as TTX-S blockers” (RaQualia Pharma Inc., priority 2010, dated 2016).

One test addresses T1, human Nav1.7 channels (Homo sapiens, UniProt Q15858).
T1 construct: expressed in transfected cells; host or cells: CHO
The test can be described thus: FRET assay, human Nav1.7 (EFS on FDSS). To be noted: CHO cells expressing human Nav1.7, read-out: IC50 against Nav1.7. It is filed as cell-based. An outline of the steps: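 IC50 was derived from normalized 440 nm fluorescence ratios of the EFS-evoked membrane-potential response read on FDSS. Recombinant CHO cells were sequentially dye-loaded with coumarin/oxonol FRET pair at room temperature in pH 7.4 buffer before compound addition.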

The next test concerns the target T2, human Nav1.3 channels (Homo sapiens, UniProt Q9NY46).
T2 construct: expressed in transfected cells; host or cells: HEK293
The test can be described thus: FRET assay, human Nav1.3 (EFS on FDSS). To be noted: HEK293 cells expressing human Nav1.3, read-out: IC50 against Nav1.3. The class given is cell-based. An outline of the steps:
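HEK293 cells expressing the channel, loaded with 10 microM CC2-DMPE then 15 microM DiSBAC2(3) plus 0.555 mM VABSC-1 in pH 7.4 HEPES buffer at room temperature. Membrane potential changes evoked by electrical field stimulation after compound addition; IC50 from 440 nm-normalized FRET ratios.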

T2 sequence (Q9NY46 whole entry): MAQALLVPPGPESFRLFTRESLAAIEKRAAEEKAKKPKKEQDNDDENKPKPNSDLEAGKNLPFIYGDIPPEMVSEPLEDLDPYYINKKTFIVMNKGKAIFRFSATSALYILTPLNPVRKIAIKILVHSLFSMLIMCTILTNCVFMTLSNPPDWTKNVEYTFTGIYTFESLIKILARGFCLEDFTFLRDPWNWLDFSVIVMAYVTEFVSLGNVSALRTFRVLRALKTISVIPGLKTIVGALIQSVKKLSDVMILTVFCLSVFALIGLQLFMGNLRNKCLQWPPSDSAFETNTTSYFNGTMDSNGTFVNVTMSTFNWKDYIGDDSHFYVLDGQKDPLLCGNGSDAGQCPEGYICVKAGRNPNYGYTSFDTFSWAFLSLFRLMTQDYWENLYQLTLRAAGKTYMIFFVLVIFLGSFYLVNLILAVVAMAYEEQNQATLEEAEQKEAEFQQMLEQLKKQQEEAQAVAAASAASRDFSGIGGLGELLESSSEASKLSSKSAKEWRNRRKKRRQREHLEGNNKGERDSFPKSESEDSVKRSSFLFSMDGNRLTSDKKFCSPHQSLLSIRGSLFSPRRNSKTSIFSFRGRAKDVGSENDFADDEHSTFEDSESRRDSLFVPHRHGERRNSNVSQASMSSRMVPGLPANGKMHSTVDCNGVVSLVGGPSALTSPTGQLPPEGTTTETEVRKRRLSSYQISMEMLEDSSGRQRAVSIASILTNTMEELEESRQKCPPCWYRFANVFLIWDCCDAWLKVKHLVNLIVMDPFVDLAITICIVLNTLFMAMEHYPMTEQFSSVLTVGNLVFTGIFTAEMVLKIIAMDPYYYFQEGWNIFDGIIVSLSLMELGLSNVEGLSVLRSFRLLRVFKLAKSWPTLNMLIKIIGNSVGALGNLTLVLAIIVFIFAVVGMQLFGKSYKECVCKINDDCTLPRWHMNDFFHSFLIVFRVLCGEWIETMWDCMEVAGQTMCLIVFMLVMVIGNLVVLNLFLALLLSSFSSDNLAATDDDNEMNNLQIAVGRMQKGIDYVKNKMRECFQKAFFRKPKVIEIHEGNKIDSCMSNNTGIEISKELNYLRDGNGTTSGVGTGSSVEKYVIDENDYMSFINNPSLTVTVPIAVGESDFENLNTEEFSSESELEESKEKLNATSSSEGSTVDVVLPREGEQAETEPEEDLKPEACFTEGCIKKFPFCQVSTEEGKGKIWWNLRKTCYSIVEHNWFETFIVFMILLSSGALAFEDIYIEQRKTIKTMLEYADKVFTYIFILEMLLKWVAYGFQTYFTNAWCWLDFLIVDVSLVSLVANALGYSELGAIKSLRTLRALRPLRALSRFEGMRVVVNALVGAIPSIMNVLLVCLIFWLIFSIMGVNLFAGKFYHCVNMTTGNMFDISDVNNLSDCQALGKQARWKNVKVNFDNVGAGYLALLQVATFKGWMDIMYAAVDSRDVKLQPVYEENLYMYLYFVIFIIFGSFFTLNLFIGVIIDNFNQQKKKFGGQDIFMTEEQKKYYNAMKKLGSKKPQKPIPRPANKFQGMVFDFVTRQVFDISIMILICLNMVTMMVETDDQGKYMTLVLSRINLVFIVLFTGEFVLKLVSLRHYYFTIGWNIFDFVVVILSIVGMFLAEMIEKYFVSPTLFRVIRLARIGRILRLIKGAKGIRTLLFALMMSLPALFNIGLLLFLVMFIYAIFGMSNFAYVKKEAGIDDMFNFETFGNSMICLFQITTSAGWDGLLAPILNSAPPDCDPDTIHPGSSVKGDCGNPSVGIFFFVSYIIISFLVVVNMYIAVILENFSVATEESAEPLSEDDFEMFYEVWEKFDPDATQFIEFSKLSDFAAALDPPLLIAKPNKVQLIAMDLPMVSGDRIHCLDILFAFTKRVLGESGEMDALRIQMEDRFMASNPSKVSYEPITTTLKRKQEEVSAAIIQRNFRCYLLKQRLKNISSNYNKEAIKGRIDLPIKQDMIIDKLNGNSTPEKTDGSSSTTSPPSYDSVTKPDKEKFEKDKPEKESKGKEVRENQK
T1 sequence (Q15858 whole entry): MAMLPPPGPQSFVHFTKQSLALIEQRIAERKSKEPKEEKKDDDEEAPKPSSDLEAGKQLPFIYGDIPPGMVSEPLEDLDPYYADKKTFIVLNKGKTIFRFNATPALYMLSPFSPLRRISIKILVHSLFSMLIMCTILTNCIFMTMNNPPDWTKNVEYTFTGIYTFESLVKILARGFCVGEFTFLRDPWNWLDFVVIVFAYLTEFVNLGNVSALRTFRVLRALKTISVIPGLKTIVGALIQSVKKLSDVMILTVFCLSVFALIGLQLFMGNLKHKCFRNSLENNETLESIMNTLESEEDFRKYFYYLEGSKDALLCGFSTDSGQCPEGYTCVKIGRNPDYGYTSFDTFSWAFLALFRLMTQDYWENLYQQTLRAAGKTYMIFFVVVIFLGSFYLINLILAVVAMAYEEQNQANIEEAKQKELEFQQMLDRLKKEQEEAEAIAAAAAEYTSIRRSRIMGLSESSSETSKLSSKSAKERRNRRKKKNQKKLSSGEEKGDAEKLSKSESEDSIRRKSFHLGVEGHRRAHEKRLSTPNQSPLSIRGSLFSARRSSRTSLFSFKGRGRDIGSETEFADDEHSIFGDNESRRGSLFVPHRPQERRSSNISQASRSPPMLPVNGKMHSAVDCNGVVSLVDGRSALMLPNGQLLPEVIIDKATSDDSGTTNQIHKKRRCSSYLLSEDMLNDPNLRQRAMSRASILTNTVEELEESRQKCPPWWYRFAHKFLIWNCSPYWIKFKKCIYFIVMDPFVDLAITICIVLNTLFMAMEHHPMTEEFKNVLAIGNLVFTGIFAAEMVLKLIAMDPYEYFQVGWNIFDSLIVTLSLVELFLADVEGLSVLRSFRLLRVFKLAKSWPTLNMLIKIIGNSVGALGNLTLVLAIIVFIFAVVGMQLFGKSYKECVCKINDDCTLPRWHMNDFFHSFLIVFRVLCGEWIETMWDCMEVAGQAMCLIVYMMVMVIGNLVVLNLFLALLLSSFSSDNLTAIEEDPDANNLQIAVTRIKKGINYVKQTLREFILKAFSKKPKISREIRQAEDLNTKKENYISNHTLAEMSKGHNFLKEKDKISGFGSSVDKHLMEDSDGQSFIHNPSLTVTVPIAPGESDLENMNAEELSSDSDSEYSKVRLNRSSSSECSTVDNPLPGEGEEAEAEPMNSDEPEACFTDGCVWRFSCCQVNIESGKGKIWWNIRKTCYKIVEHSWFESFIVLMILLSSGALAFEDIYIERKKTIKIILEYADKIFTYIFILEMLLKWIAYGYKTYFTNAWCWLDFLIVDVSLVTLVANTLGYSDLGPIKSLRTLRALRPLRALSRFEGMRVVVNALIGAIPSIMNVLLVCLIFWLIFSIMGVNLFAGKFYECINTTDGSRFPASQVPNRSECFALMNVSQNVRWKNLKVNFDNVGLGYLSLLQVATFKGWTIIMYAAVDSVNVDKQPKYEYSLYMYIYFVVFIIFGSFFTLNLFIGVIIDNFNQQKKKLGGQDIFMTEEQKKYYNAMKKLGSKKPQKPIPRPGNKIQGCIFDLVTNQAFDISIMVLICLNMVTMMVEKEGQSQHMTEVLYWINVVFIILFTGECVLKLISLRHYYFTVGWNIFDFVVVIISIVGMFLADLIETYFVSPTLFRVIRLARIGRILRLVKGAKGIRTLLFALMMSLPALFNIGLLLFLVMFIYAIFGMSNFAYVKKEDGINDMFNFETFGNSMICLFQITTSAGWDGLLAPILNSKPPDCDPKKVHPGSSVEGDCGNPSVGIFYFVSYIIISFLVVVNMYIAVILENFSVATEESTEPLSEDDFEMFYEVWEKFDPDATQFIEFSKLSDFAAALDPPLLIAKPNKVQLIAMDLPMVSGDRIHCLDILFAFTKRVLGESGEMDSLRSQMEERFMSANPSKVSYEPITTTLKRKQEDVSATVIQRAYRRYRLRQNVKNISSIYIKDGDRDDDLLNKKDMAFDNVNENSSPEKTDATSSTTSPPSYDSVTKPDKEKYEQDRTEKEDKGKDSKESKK

As to `Cc1cc(C(=O)NC(C)c2cnc(OCC(F)(F)F)c(C)c2)cc(NC(=O)C(C)C)n1` (single isomer, unassigned) [Example 520, 2-isobutyramido-6-methyl-N-(1-(5-methyl-6-(2,2,2-trifluoroethoxy)pyridin-3-yl)ethyl)isonicotinamide], the IC50 at human Nav1.7 channels and at human Nav1.3 channels was less than 1 µM throughout.

As to `CCC(=O)Nc1nc(C)cc(C(=O)NCc2cnc(OCC(F)(F)F)c(C)c2)n1` [Example 364, 6-methyl-N-((5-methyl-6-(2,2,2-trifluoroethoxy)pyridin-3-yl)methyl)-2-propionamidopyrimidine-4-carboxamide], the IC50 on human Nav1.7 channels and on human Nav1.3 channels was less than 1 µM in each case.

With `O=C(NCc1cnc(OCC(F)(F)F)c(Cl)c1)c1ccnc(NC(=O)C2CC2)n1` [Example 411, N-((5-chloro-6-(2,2,2-trifluoroethoxy)pyridin-3-yl)methyl)-2-(cyclopropanecarboxamido)pyrimidine-4-carboxamide], the IC50 on human Nav1.7 channels and at human Nav1.3 channels was less than 1 µM each time.

For `CCC(=O)Nc1cc(C(=O)NC(C)c2cnc(OCC(F)(F)F)c(C)c2)ccn1` (single isomer, unassigned) [Example 87, N-(1-(5-methyl-6-(2,2,2-trifluoroethoxy)pyridin-3-yl)ethyl)-2-propionamidoisonicotinamide], the half-maximal inhibitory concentration (IC50) at human Nav1.7 channels and on human Nav1.3 channels was less than 1 µM each time.

Take `Cc1cc(C(=O)NCc2ccc(OC(F)(F)F)c(C)c2)cc(NC(=O)C(C)C)n1` [Example 809, 2-isobutyramido-6-methyl-N-(3-methyl-4-(trifluoromethoxy)benzyl)isonicotinamide]: the IC50 on human Nav1.7 channels and at human Nav1.3 channels was less than 1 µM each time.

In the case of `CCC(=O)Nc1cc(C(=O)NCc2ccc(OCC(F)(F)F)nc2OC)cc(C)n1` [Example 150, N-((2-methoxy-6-(2,2,2-trifluoroethoxy)pyridin-3-yl)methyl)-2-methyl-6-propionamidoisonicotinamide], the IC50 on human Nav1.7 channels and on human Nav1.3 channels was less than 1 µM throughout.

`Cc1cc(C(=O)NCc2ccc(OCC(F)(F)F)c(C)c2)nc(NC(=O)C2CC2)n1` [Example 780, 2-(cyclopropanecarboxamido)-6-methyl-N-(3-methyl-4-(2,2,2-trifluoroethoxy)benzyl)pyrimidine-4-carboxamide]: the IC50 at human Nav1.7 channels and on human Nav1.3 channels was less than 1 µM in each case.

As to `Cc1cc(C(=O)NC(C)c2ccc(OCC(F)(F)F)nc2)cc(NC(=O)C(C)C)n1` (single isomer, unassigned) [Example 62, 2-isobutyramido-6-methyl-N-(1-(6-(2,2,2-trifluoroethoxy)pyridin-3-yl)ethyl)isonicotinamide], the IC50 at human Nav1.7 channels and on human Nav1.3 channels was less than 1 µM each time.

For the compound `CC(C)C(=O)Nc1cc(C(=O)NCc2cccc(OC(F)(F)F)c2)ccn1` [Example 527, 2-isobutyramido-N-(3-(trifluoromethoxy)benzyl)isonicotinamide], the IC50 at human Nav1.7 channels and at human Nav1.3 channels was less than 1 µM in each case.

Regarding `Cc1cc(C(C)NC(=O)c2ccnc(NC(=O)C3CC3)n2)cnc1OCC(F)(F)F` (single isomer, unassigned) [Example 224, 2-(cyclopropanecarboxamido)-N-(1-(5-methyl-6-(2,2,2-trifluoroethoxy)pyridin-3-yl)ethyl)pyrimidine-4-carboxamide], the IC50 at human Nav1.7 channels and on human Nav1.3 channels was less than 1 µM each time.

On to `CCC(=O)Nc1cc(C(=O)NCc2cccc(OC(F)F)c2)cc(C)n1` [Example 129, N-(3-(difluoromethoxy)benzyl)-2-methyl-6-propionamidoisonicotinamide], for which the IC50 at human Nav1.7 channels and at human Nav1.3 channels was less than 1 µM throughout.

On to `Cc1cc(C(=O)NCc2cccc(OC(F)(F)F)c2)cc(NC(=O)C(C)C)n1` [Example 528, 2-isobutyramido-6-methyl-N-(3-(trifluoromethoxy)benzyl)isonicotinamide], for which the IC50 at human Nav1.7 channels and at human Nav1.3 channels was less than 1 µM each time.
